Source: publication PMC12615753, “Glutathione as a taste modulator: molecular mechanisms of interaction with umami and sweet taste receptors” (Food Chemistry: Molecular Sciences, 2025)

Experiments:
hTAS1R1 D192E/rTAS1R3 = target: T1, hTAS1R1 D192E/rTAS1R3 (UniProt Q7RTX1+Q923K1, D192E); assay: cell-based; parameters: species or system human, rat
T1 construct: The cDNA coding region of rTAS1R3 was synthesized with optimized-codon usage for human expression; expressed in transfected cells; host or cells: HEK293T/17
Description: Chimeric Gα proteins, such as Gα16Gust44, Gα16Gi3 or Gα15i2, are widely used in the functional expression of TAS1R receptors ([Backes et al., 2015]; [Suess et al., 2015]; [Toda et al., 2021], [Toda et al., 2013], [Toda et al., 2018]; [Zhang et al., 2008]). Chimeric Gα15i2 (([Toda et al., 2013]), Supplementary data) was generated by replacing the last five residues of the C-terminal tail of rat Gα15i2 (EINLL) (UniProt number G3V6N8; https://www.uniprot.org/uniprot/) with the counterpart sequence from human GNAI2 (DCGLF) (UniProt number P04899-1) and cloning into the pcDNA3.1/Hygro vector (Invitrogen, Thermo Fisher Scientific, Illkirch, France) between the HindIII and NotI restriction sites, resulting in the plasmid pcDNA3.1-Gα15i2. Chimeric Gα16Gust44 construct have already been reported ([Raliou et al., 2011]). Briefly, Gα16Gust44 was generated by replacing the C-terminal of Gα16 with the C-terminal 44 residues of gustducin. As previously described, hTAS1R1 was amplified from human fungiform papillae cDNA and cloned and inserted into pcDNA3 (Invitrogen), generating pcDNA3-TAS1R1-WT (wild-type) ([Raliou et al., 2011]). […]

hTAS1R1 D192A/rTAS1R3 = target: T2, hTAS1R1 D192A/rTAS1R3 (UniProt Q7RTX1+Q923K1, D192A); assay: cell-based; format: cell-based, human, rat
T2 construct: UniProtKB number Q7RTX1–1); The cDNA coding region of rTAS1R3 was synthesized with optimized-codon usage for human expression; expressed in transfected cells; host or cells: HEK293T/17
T2 sequence (Q7RTX1 21-841 D192A): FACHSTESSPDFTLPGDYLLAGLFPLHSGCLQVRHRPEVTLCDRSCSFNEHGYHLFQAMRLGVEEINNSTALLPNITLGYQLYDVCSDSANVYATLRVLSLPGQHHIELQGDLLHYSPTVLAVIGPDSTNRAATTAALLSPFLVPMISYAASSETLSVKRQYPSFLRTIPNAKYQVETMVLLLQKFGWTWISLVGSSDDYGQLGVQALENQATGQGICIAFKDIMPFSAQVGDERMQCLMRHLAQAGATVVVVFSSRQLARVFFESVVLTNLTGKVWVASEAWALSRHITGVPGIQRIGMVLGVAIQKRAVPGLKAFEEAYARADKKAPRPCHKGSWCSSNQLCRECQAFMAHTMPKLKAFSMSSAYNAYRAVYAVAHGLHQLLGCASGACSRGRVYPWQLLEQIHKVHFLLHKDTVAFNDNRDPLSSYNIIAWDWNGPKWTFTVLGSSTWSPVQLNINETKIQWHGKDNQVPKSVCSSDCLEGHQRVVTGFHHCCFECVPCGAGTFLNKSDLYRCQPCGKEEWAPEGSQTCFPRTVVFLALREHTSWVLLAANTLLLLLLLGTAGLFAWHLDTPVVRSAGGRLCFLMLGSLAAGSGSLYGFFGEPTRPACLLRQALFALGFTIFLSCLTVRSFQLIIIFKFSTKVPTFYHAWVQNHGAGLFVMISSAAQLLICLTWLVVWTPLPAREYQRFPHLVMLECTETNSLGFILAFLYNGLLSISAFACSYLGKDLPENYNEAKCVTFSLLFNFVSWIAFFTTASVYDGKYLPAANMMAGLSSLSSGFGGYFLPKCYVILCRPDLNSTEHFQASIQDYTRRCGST
T2 sequence (Q923K1 21-858): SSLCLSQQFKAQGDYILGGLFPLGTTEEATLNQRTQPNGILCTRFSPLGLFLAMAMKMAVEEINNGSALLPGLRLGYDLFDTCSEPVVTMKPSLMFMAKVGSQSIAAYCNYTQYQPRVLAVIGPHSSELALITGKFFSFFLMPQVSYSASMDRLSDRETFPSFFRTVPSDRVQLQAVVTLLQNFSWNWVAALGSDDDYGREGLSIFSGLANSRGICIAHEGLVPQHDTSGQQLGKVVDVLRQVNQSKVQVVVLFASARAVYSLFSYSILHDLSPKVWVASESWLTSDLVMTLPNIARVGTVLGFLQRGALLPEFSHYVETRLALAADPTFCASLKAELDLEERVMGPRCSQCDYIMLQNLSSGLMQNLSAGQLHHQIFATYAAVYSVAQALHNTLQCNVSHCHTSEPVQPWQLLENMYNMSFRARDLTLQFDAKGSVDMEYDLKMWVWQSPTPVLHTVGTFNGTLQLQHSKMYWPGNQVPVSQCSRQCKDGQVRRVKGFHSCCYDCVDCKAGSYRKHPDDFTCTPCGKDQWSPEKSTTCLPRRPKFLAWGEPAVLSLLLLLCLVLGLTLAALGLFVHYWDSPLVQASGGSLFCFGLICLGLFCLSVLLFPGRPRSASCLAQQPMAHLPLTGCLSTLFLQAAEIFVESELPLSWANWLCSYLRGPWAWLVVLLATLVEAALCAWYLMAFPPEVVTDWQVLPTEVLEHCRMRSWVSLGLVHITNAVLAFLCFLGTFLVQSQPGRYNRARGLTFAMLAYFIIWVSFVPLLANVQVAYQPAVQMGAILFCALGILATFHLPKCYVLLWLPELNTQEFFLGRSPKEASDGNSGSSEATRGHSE
Description: Chimeric Gα proteins, such as Gα16Gust44, Gα16Gi3 or Gα15i2, are widely used in the functional expression of TAS1R receptors ([Backes et al., 2015]; [Suess et al., 2015]; [Toda et al., 2021], [Toda et al., 2013], [Toda et al., 2018]; [Zhang et al., 2008]). Chimeric Gα15i2 (([Toda et al., 2013]), Supplementary data) was generated by replacing the last five residues of the C-terminal tail of rat Gα15i2 (EINLL) (UniProt number G3V6N8; https://www.uniprot.org/uniprot/) with the counterpart sequence from human GNAI2 (DCGLF) (UniProt number P04899-1) and cloning into the pcDNA3.1/Hygro vector (Invitrogen, Thermo Fisher Scientific, Illkirch, France) between the HindIII and NotI restriction sites, resulting in the plasmid pcDNA3.1-Gα15i2. Chimeric Gα16Gust44 construct have already been reported ([Raliou et al., 2011]). Briefly, Gα16Gust44 was generated by replacing the C-terminal of Gα16 with the C-terminal 44 residues of gustducin. As previously described, hTAS1R1 was amplified from human fungiform papillae cDNA and cloned and inserted into pcDNA3 (Invitrogen), generating pcDNA3-TAS1R1-WT (wild-type) ([Raliou et al., 2011]). […] The cDNA coding region of rTAS1R3 was synthesized with optimized-codon usage for human expression (Genewiz) and was cloned and inserted into the mammalian pcDNA4/myc-HisA (Invitrogen) expression vector between the EcoRI and NotI restriction sites, resulting in the plasmid pcDNA4-rTAS1R3. […] The sequence integrity of all the plasmid constructs was verified via automated DNA sequencing (Genewiz).
The hTAS1R1 mutants were co-expressed with the rTAS1R3 subunit in HEK293 cells. […] As a control, the functionality of the mutated receptors was checked after stimulation with S807 (Fig. S8), which interacts with TAS1R1-TMD ([Zhang et al., 2008]).

hTAS1R3 = hTAS1R3 (Homo sapiens, UniProt Q7RTX0); settings: GSH alone; Fig. 5B
Description: HEK293T/17 cells (ATCC CRL-11268) were seeded into clear bottom black 96-well plates coated with poly-D-lysine at a density of 32500 cells/well in 100 μL of DMEM containing 4.5 g/L glucose and supplemented with penicillin/streptomycin, 2 mM GlutaMAX and 10 % dialyzed fetal bovine serum. The plates were incubated for 24 h at 37 °C and 7.3 % CO2 in a humidified atmosphere. After incubation, using Fugene® 4 K (0.46 μL/well, Promega, Illkirch, France), the cells were transiently transfected with pcDNA3-hTAS1R1-WT (60 ng/well) or TAS1R1 mutants, pcDNA4-rTAS1R3 (60 ng/well), pcDNA3-Gα15i2 (10 ng/well), and pGP-CMV-GCaMP6s (Addgene #40753; 10 ng/well) as a genetically encoded calcium indicator. […] After 20 s of basal fluorescence calcium measurement, the cells were stimulated via automatic injection of a range of compounds in eight wells, and the signal emission was recorded for an additional 70 s, via a FlexStation 3® fluorometric microplate reader (Molecular Devices, San Jose, CA, USA). […] The emitted fluorescence was measured at a wavelength of 510 nm after excitation at 488 nm. […] For each well, the decrease in the raw fluorescence as the relative fluorescence changed was calculated as ΔF/F0. Replicates were averaged for the wells subjected to the same stimuli, the background signal was subtracted, and the fluorescence changes in mock-transfected cells were subtracted. […]

TAS1R1/TAS1R3 = settings: ref Broadhead et al., 2011; Servant & Frerot, 2022; cited from earlier work

Sequence of hTAS1R3 (Q7RTX0 21-852): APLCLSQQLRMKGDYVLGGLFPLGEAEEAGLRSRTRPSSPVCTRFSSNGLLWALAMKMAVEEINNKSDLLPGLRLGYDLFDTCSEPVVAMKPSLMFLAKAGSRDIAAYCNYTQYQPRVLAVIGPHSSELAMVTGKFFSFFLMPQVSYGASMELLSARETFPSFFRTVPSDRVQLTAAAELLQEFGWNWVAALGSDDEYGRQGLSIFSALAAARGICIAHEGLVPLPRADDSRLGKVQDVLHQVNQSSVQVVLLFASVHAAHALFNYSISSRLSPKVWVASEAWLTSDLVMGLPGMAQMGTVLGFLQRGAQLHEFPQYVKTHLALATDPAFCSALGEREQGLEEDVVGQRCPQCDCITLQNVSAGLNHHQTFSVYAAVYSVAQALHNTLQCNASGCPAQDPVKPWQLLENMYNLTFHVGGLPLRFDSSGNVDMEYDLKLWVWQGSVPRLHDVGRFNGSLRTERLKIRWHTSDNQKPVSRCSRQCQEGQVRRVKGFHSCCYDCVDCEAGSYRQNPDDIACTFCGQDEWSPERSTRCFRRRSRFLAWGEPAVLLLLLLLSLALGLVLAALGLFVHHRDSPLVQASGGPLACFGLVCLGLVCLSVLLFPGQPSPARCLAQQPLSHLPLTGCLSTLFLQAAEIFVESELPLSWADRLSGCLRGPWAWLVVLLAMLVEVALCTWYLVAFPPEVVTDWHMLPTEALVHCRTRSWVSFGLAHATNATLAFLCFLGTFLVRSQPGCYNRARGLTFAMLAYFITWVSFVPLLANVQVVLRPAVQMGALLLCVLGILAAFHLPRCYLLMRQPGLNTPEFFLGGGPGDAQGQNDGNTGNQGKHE
T1 sequence (Q7RTX1 21-841 D192E, one chain of several): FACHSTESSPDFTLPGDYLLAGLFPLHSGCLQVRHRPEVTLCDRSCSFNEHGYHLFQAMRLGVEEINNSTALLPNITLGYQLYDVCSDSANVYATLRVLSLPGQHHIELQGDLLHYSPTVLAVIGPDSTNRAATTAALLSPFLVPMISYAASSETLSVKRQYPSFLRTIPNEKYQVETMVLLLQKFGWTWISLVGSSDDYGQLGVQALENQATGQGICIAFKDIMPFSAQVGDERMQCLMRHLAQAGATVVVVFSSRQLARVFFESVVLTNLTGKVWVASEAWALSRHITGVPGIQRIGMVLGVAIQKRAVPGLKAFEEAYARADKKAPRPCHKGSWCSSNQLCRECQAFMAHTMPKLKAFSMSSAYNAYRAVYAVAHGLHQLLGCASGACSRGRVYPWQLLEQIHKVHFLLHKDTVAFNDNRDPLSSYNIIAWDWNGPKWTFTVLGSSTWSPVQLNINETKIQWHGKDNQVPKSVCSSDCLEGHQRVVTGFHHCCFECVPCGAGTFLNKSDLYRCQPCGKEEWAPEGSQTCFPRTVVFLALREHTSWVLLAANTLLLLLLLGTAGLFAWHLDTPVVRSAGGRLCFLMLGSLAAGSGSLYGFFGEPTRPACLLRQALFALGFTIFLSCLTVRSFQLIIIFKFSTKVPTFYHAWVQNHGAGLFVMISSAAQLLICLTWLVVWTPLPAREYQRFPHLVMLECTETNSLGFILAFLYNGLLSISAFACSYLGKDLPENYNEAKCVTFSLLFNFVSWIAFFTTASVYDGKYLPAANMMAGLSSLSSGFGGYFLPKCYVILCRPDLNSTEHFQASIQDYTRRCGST

N[C@@H](CCC(=O)N[C@@H](CS)C(=O)NCC(=O)O)C(=O)O [GSH, γ-L-glutamyl-L-cysteinyl-glycine]
EC50 (hTAS1R1 D192E/rTAS1R3): > 30 mM | EC50 (hTAS1R1 D192A/rTAS1R3): 3.25 ± 0.061 mM | effect of the added compound (1 mM) on the response to L-Glu (hTAS1R1 D192A/rTAS1R3; D192A): synergy was observed | response to the agonist alone, vs WT (hTAS1R1 D192A/rTAS1R3; D192A): significantly increased the initial amplitude | Max ∆F/F0 (hTAS1R1 D192A/rTAS1R3; D192A, GSH): 0.65 ± 0.01 | R1 = mutant EC50/WT EC50 (hTAS1R1 D192A/rTAS1R3; D192A, GSH): 1.3 | response of transfected cells (hTAS1R3): did not respond | EC50 (TAS1R1/TAS1R3): 11.3 mM
